Experimental data: patent publication US10414811B2, “Protease-resistant lipidated GLP-1 analogs” (MEDIMMUNE LIMITED, priority 2015, dated 2019)
Where two headings read alike, the source gives them in different places. Numbered stars: 1 amine (or outer) side, 2 acyl side, 3 side chain; on linkers, the order of the positions; unused ones are H or OH. Square brackets hold non-standard residues; d marks the D form. Side chains are listed from the residue outwards. Peptide text beside a SMILES is read from it. * marks the point of attachment. γGlu = O=C(O)[C@H](CCC(=O)[*:2])N[*:1]; Palmitoyl = CCCCCCCCCCCCCCCC(=O)*; αMeF = C[C@](N)(Cc1ccccc1)C(=O)O; αMeK = C[C@](N)(CCCCN)C(=O)O; αMeS = C[C@](N)(CO)C(=O)O; Aib = CC(C)(N)C(=O)O

How the values were obtained:
[1] = target: T1, human glucagon receptor (GCGR) (Homo sapiens, UniProt P47871); experiment: cAMP assay, human GCGR cells; assay type: cell-based; conditions: cAMP assay
T1 construct: expressed in transfected cells
Protocol: (§1) Sample dilutions are made in duplicate.
(§2) A frozen cryo-vial of cells expressing the receptor of interest is thawed rapidly in a water-bath, transferred to pre-warmed assay buffer and spun at 240×g for 5 minutes. Cells are re-suspended in assay buffer at a batch-dependent optimized concentration (e.g. hGCGR cells at 2×10^5 cells/ml, hGLP-1R and hGIPR cells at 1×10^5 cells/ml).
(§3) To this, 5 μL cell suspension is added and the plates incubated at room temperature for 30 minutes.
(§4) cAMP levels are measured using a commercially available cAMP dynamic 2 HTRF kit (Cisbio, Cat #62AM4PEJ), following the two step protocol as per manufacturer's recommendations. In brief; anti-cAMP cryptate (donor fluorophore) and cAMP-d2 (acceptor fluorophore) are made up separately by diluting each 1/20 in conjugate & lysis buffer provided in the kit. 5 μL anti-cAMP cryptate is added to wells of the assay plate, and 5 μL cAMP-d2 is added to wells except non-specific binding (NSB) wells, to which conjugate and lysis buffer are added. […] EC50 values of the synthetic peptides determined in cAMP assays are then determined.
(§5) Data is transformed to % Delta F as described in the manufacturer's guidelines and analyzed by 4-parameter logistic fit to determine EC50 values. […] To compare the balance of activities at the GLP-1R and GCGR between different peptides and across different conditions, these can be correlated, where the EC50's are related to those of comparator peptides.

[2] = target: T2, human glucose-dependent insulinotropic peptide receptor (GIPR) (Homo sapiens, UniProt P48546); experiment: cAMP assay, human GIPR cells; assay type: cell-based; conditions: cAMP assay
T2 construct: expressed in transfected cells
T2 sequence (P48546 22-466): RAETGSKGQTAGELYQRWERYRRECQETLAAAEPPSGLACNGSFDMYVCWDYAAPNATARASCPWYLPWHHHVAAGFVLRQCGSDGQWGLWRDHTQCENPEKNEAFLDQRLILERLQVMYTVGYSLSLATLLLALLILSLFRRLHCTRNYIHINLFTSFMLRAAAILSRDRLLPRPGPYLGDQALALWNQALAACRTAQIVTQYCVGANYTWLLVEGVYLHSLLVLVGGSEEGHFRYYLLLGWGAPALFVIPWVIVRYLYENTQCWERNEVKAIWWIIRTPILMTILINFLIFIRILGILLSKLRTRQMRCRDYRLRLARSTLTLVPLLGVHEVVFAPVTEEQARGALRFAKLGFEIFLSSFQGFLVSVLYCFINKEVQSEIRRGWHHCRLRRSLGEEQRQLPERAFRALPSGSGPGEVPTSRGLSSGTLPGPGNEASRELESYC
Protocol: as §1, §2, §3, §4, §5

[3] = first determination (n1), read-out: Primary assay EC50 Gluc-R (n1)
[4] = second determination (n2), read-out: Primary assay EC50 Gluc-R (n2)
[5] = first determination (n1), read-out: Primary assay EC50 GIP-R (n1)
[6] = second determination (n2), read-out: Primary assay EC50 GIP-R (n2)

T1 sequence (P47871 26-477): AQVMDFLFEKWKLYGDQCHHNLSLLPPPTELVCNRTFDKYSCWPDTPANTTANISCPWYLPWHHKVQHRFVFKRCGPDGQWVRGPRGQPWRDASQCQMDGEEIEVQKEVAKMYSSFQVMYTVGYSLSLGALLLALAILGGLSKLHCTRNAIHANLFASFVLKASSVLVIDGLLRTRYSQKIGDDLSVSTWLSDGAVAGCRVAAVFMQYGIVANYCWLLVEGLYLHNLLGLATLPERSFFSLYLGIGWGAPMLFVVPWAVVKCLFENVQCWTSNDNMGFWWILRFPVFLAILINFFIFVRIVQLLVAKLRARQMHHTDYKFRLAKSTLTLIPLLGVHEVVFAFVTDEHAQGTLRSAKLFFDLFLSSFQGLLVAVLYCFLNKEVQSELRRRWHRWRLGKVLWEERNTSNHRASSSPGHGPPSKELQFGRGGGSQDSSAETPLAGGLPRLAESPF

| Structure (SMILES) | EC50 [1, 3] | EC50 [1, 4] | EC50 [2, 5] | EC50 [2, 6] |
| --- | --- | --- | --- | --- |
| CC[C@H](C)[C@H](NC(=O)[C@H](Cc1ccccc1)NC(=O)[C@H](CCC(=O)O)NC(=O)[C@H](CCCCN)NC(=O)[C@H](C)NC(=O)[C@H](C)NC(=O)[C@H](CCC(N)=O)NC(=O)CNC(=O)[C@H](CCC(=O)O)NC(=O)[C@H](CC(C)C)NC(=O)[C@H](Cc1ccc(O)cc1)NC(=O)[C@H](CO)NC(=O)C(C)(C)NC(=O)[C@@H](NC(=O)[C@H](CC(=O)O)NC(=O)[C@H](CO)NC(=O)[C@@H](NC(=O)[C@H](Cc1ccccc1)NC(=O)[C@@H](NC(=O)CNC(=O)[C@H](CCC(=O)O)NC(=O)C(C)(C)NC(=O)[C@@H](N)Cc1c[nH]cn1)[C@@H](C)O)[C@@H](C)O)C(C)C)C(=O)N[C@@H](C)C(=O)N[C@@H](Cc1c[nH]c2ccccc12)C(=O)N[C@@H](CC(C)C)C(=O)N[C@H](C(=O)N[C@@H](CCCCN)C(=O)NCC(=O)N[C@@H](CCCNC(=N)N)C(N)=O)C(C)C [compound 22] (H-H[Aib]EGTFTSDV[Aib]SYLEGQAAKEFIAWLVKGR-NH2; N-terminus assumed) | 0.39 µM | 0.24 µM | 0.48 µM | 0.48 µM |
| CC[C@H](C)[C@H](NC(=O)[C@H](Cc1ccccc1)NC(=O)[C@H](CCC(=O)O)NC(=O)[C@H](CCCCN)NC(=O)[C@H](C)NC(=O)[C@H](C)NC(=O)[C@H](CCC(N)=O)NC(=O)CNC(=O)[C@H](CCC(=O)O)NC(=O)[C@H](CC(C)C)NC(=O)[C@H](Cc1ccc(O)cc1)NC(=O)[C@H](CO)NC(=O)[C@](C)(CO)NC(=O)[C@@H](NC(=O)[C@H](CC(=O)O)NC(=O)[C@](C)(CO)NC(=O)[C@@H](NC(=O)[C@H](Cc1ccccc1)NC(=O)[C@@H](NC(=O)CNC(=O)[C@H](CCC(=O)O)NC(=O)C(C)(C)NC(=O)[C@@H](N)Cc1c[nH]cn1)[C@@H](C)O)[C@@H](C)O)C(C)C)C(=O)N[C@@H](C)C(=O)N[C@@H](Cc1c[nH]c2ccccc12)C(=O)N[C@@H](CC(C)C)C(=O)N[C@H](C(=O)N[C@@H](CCCCN)C(=O)NCC(=O)N[C@@H](CCCNC(=N)N)C(N)=O)C(C)C [compound 23] | ≥ 0.54 µM | ≥ 0.54 µM | ≥ 0.54 µM | ≥ 0.54 µM |
| CC[C@H](C)[C@H](NC(=O)[C@](C)(Cc1ccccc1)NC(=O)[C@H](CCC(=O)O)NC(=O)[C@](C)(CCCCN)NC(=O)[C@H](C)NC(=O)[C@H](C)NC(=O)[C@H](CCC(=O)O)NC(=O)CNC(=O)[C@H](CCC(=O)O)NC(=O)[C@H](CC(C)C)NC(=O)[C@](C)(Cc1ccccc1)NC(=O)[C@H](CO)NC(=O)[C@](C)(CO)NC(=O)[C@@H](NC(=O)[C@H](CC(=O)O)NC(=O)[C@H](CCC(=O)O)NC(=O)[C@@H](NC(=O)[C@](C)(Cc1ccccc1)NC(=O)[C@H](CO)NC(=O)CNC(=O)[C@H](CCC(=O)O)NC(=O)C(C)(C)NC(=O)[C@@H](N)Cc1c[nH]cn1)[C@@H](C)O)C(C)C)C(=O)N[C@@H](C)C(=O)N[C@@](C)(Cc1ccccc1)C(=O)N[C@H](C(=O)N[C@H](C(=O)N[C@@](C)(CCCCN)C(=O)NCC(=O)NCC(N)=O)C(C)C)C(C)C [compound 28] (H-H[Aib]EGS[αMeF]TEDV[αMeS]S[αMeF]LEGEAA[αMeK]E[αMeF]IA[αMeF]VV[αMeK]GG-NH2) | ≥ 0.1 µM | ≥ 0.1 µM | ≥ 0.1 µM | ≥ 0.1 µM |
| CC[C@H](C)[C@H](NC(=O)[C@](C)(Cc1ccccc1)NC(=O)[C@H](CCC(=O)O)NC(=O)[C@](C)(CCCCN)NC(=O)[C@H](C)NC(=O)[C@H](C)NC(=O)[C@H](CCC(=O)O)NC(=O)CNC(=O)[C@H](CCC(=O)O)NC(=O)[C@H](CC(C)C)NC(=O)[C@](C)(Cc1ccccc1)NC(=O)[C@H](CO)NC(=O)[C@](C)(CO)NC(=O)[C@@H](NC(=O)[C@H](CC(=O)O)NC(=O)[C@@H](NC(=O)[C@@H](NC(=O)[C@](C)(Cc1ccccc1)NC(=O)[C@H](CO)NC(=O)CNC(=O)[C@H](CCC(=O)O)NC(=O)C(C)(C)NC(=O)[C@@H](N)Cc1c[nH]cn1)[C@@H](C)O)[C@@H](C)O)C(C)C)C(=O)N[C@@H](C)C(=O)N[C@@](C)(Cc1ccccc1)C(=O)N[C@H](C(=O)N[C@H](C(=O)N[C@@](C)(CCCCN)C(=O)NCC(=O)NCC(N)=O)C(C)C)C(C)C [compound 29] (H-H[Aib]EGS[αMeF]TTDV[αMeS]S[αMeF]LEGEAA[αMeK]E[αMeF]IA[αMeF]VV[αMeK]GG-NH2) | ≥ 0.1 µM | ≥ 0.1 µM | ≥ 0.1 µM | ≥ 0.1 µM |
| CC[C@H](C)[C@H](NC(=O)[C@](C)(Cc1ccccc1)NC(=O)[C@H](CCC(=O)O)NC(=O)[C@H](CCC(=O)O)NC(=O)[C@H](C)NC(=O)[C@H](C)NC(=O)[C@H](CCC(=O)O)NC(=O)CNC(=O)[C@H](CCC(=O)O)NC(=O)[C@H](CC(C)C)NC(=O)[C@](C)(Cc1ccccc1)NC(=O)[C@H](CO)NC(=O)[C@](C)(CO)NC(=O)[C@@H](NC(=O)[C@H](CC(=O)O)NC(=O)[C@H](CO)NC(=O)[C@@H](NC(=O)[C@](C)(Cc1ccccc1)NC(=O)[C@H](CO)NC(=O)CNC(=O)[C@H](CCC(=O)O)NC(=O)C(C)(C)NC(=O)[C@@H](N)Cc1c[nH]cn1)[C@@H](C)O)C(C)C)C(=O)N[C@@H](C)C(=O)N[C@@](C)(Cc1ccccc1)C(=O)N[C@H](C(=O)N[C@H](C(=O)N[C@@H](CCC(=O)O)C(=O)NCC(=O)NCC(N)=O)C(C)C)C(C)C [compound 44] (H-H[Aib]EGS[αMeF]TSDV[αMeS]S[αMeF]LEGEAAEE[αMeF]IA[αMeF]VVEGG-NH2) | ≥ 0.031 µM | ≥ 0.031 µM | ≥ 0.031 µM | ≥ 0.031 µM |
| CCCCCCCCCCCCCCCC(=O)N[C@@H](CCC(=O)NCCCC[C@H](NC(=O)[C@](C)(Cc1ccccc1)NC(=O)[C@H](CCC(=O)O)NC(=O)[C@](C)(CCCCN)NC(=O)[C@H](C)NC(=O)[C@H](C)NC(=O)[C@H](CCC(=O)O)NC(=O)CNC(=O)[C@H](CCC(=O)O)NC(=O)[C@H](CC(C)C)NC(=O)[C@](C)(Cc1ccccc1)NC(=O)[C@H](CO)NC(=O)[C@](C)(CO)NC(=O)[C@@H](NC(=O)[C@H](CC(=O)O)NC(=O)[C@H](CO)NC(=O)[C@@H](NC(=O)[C@](C)(Cc1ccccc1)NC(=O)[C@H](CO)NC(=O)CNC(=O)[C@H](CCC(=O)O)NC(=O)C(C)(C)NC(=O)[C@@H](N)Cc1c[nH]cn1)[C@@H](C)O)C(C)C)C(=O)N[C@@H](C)C(=O)N[C@@](C)(Cc1ccccc1)C(=O)N[C@H](C(=O)N[C@H](C(=O)N[C@@](C)(CCCCN)C(=O)NCC(=O)NCC(N)=O)C(C)C)C(C)C)C(=O)O [compound 77] (H-H[Aib]EGS[αMeF]TSDV[αMeS]S[αMeF]LEGEAA[αMeK]E[αMeF]K([γGlu-Palmitoyl])A[αMeF]VV[αMeK]GG-NH2) | ≥ 0.028 µM | ≥ 0.028 µM | ≥ 0.028 µM | ≥ 0.028 µM |
| CCCCCCCCCCCC(=O)N[C@@H](CCC(=O)N[C@@H](CCC(=O)NCCCC[C@H](NC(=O)[C@H](C)NC(=O)[C@H](C)NC(=O)[C@H](CCC(=O)O)NC(=O)CNC(=O)[C@H](CCC(=O)O)NC(=O)[C@H](CC(C)C)NC(=O)[C@](C)(Cc1ccccc1)NC(=O)[C@H](CO)NC(=O)[C@](C)(CO)NC(=O)[C@@H](NC(=O)[C@H](CC(=O)O)NC(=O)[C@H](CO)NC(=O)[C@@H](NC(=O)[C@](C)(Cc1ccccc1)NC(=O)[C@H](CO)NC(=O)CNC(=O)[C@H](CCC(=O)O)NC(=O)C(C)(C)NC(=O)[C@@H](N)Cc1c[nH]cn1)[C@@H](C)O)C(C)C)C(=O)N[C@@H](CCC(=O)O)C(=O)N[C@@](C)(Cc1ccccc1)C(=O)N[C@H](C(=O)N[C@@H](C)C(=O)N[C@@](C)(Cc1ccccc1)C(=O)N[C@H](C(=O)N[C@H](C(=O)N[C@@](C)(CCCCN)C(=O)NCC(=O)NCC(N)=O)C(C)C)C(C)C)[C@@H](C)CC)C(=O)O)C(=O)O [compound 129] | ≥ 0.027 µM | ≥ 0.027 µM | ≥ 0.027 µM | ≥ 0.027 µM |
